Earlier results, collected in patent publication US20170217996A1, “Large-scale diastereoselective syntheses of cycloheptadienylsulfones and stereotetrads” (Purdue Research Foundation, priority 2014, published 2017).

What was measured:
Lewis lung = conditions: mice
B16 melanoma = conditions: mice
Colon 26 carcinoma = conditions: mice
Ehrlich carcinoma = conditions: mice
P388 leukemia = conditions: mice
tubulin = conditions: in association with actin
actin = conditions: in vitro

With `COCC(C(=O)O[C@@H]1C/C=C/C=C/C(=O)O[C@H]([C@@H](C)[C@@H](O)[C@@H](C)CC[C@@H](OC(=O)C(C)N(C)C)[C@H](C)[C@H](OC(C)=O)[C@H](C)/C=C/N(C)C=O)C/C=C/[C@H](OC)C[C@H](C)C/C=C(\C)[C@@H](OC)CC[C@@H](C)[C@@H](O)[C@@H]1C)N(C)C` (stereo partly drawn) [ApA, Aplyronine A] as the compound, how does the “concentration that inhibits spindle formation and mitosis” value (HeLa S3 cells) read?
Its value is 100 pM.

What about the increase of lifespan (Lewis lung) of the same compound?
The increase of lifespan was 566%.

What about the increase of lifespan (B16 melanoma) of the same compound?
The increase of lifespan was 201%.

What about the “complex with actin and tubulin” value (actin and tubulin) of the same compound?
Its value is 1:1:1 heterotrimeric complex.

What about the increase of lifespan (Colon 26 carcinoma) of the same compound?
Its increase of lifespan is 255%.

What about the increase of lifespan (Ehrlich carcinoma) of the same compound?
Its increase of lifespan is 398%.

And the increase of lifespan (P388 leukemia)?
The increase of lifespan was 545%.

What about the “inhibition of tubulin polymerization” value (tubulin) of the same compound?
Its value is “inhibits tubulin polymerization”.

And the “inhibition of actin polymerization” value (actin)?
Its value is “inhibit actin polymerization in vitro to the same extent”.
